# What was measured:
# [1] = Sucrose solubility in conditioned (sodium lamp) vs control water at room temperature (22° C.); type: physicochemical
# Method: Beaker “II” was placed under another sodium lamp 12 as like Beaker “KK”; and Beaker “JJ” was placed in the same incubator as Beaker “LL”. […] Specifically, Beaker “GG” was placed under another sodium lamp 12 as like Beaker “KK” and Beaker “II”; and Becker “HH” was placed into the same incubator as Beaker “LL” and “II”.
# [2] = Phenyl salicylate solubility in conditioned (neon lamp) vs unconditioned acetone at room temperature (22° C.); type: physicochemical; settings: equilibrated about 20 hours
# Method: Acetone (about 1 ml) was pipetted into small glass test tubes and stoppers placed in the tube. Tubes were placed under a neon lam; (about 8 m/cm^2) in an otherwise dark room for about 1-5 hours at about 28° C. ambient temperature. Tubes were also placed simultaneously in an incubator at 28° C. for about 1.5 hours.
# Phenyl solicylate (about 3.50 grams) was added to each tube leaving a layer undissolved on the bottom of each tube. The solutions were allowed to equilibrate (about 20 hours). Solution was filtered over the crystals and 0.500 ml pipetted into fresh tubes. After the acetone evaporated, dry weights of phenyl solicylate per ml dissolved in conditioned and unconditioned acetone were determined.
"Weight (dry sucrose weight per 100 ml solution) ([1]; GG, water under sodium lamp one hour, 23.5° C.)","Weight (dry sucrose weight per 100 ml solution) ([1]; HH, control water 1 hour, 23° C.)","Weight (dry sucrose weight per 100 ml solution) ([1]; II, water under sodium lamp two hours, 23.5° C.)","Weight (dry sucrose weight per 100 ml solution) ([1]; JJ, control water 2 hours, 23.5° C.)","Weight (dry sucrose weight per 100 ml solution) ([1]; KK, water under Na lamp three hours, 23.5° C.)","Weight (dry sucrose weight per 100 ml solution) ([1]; LL, control water 3 hours, 23.5° C.)",more sucrose dissolved by conditioned water than by untreated control water ([1]; two hours exposure of water to sodium lamp),Average amount dissolved in unconditioned acetone ([2]; acetone kept in incubator at 28° C.),Average amount dissolved in conditioned acetone ([2]; acetone under neon lamp),SMILES
49 g/100 ml,49 g/100 ml,47 g/100 ml,44 g/100 ml,46 g/100 ml,49 g/100 ml,about 7%,–,–,OC[C@H]1O[C@@](CO)(O[C@H]2O[C@H](CO)[C@@H](O)[C@H](O)[C@H]2O)[C@@H](O)[C@@H]1O [Sucrose]
–,–,–,–,–,–,–,0.68 g/mL,0.78 g/mL,O=C(Oc1ccccc1)c1ccccc1O [phenyl salicylate]

# Reference: patent publication US20060132952A1, “Enhanced data storage and retrieval devices and systems and methods for utilizing same” (priority 2002, published 2006)
